Measured values taken from patent US10111435B2, “Herbicidal compositions containing N-(1,3,4-oxadiazol-2-yl)-aryl carboxylic acid amides” (BAYER CROPSCIENCE AKTIENGESELLSCHAFT, priority 2013, dated 2018).

Columns and labels:
Format in all cases: in vivo
Solanum nigrum (SOLNI) = assay: greenhouse post-emergence herbicidal efficacy against SOLNI; conditions: 21 days after application; 1 g of a.i./ha
Procedure: (§1) All trials whose results are shown were conducted in a greenhouse by the methodology specified below. The effect of the inventive herbicidal compositions was examined on the following harmful plants 14 and 21 days after application:
(§2) Echinochloa crus-galli (ECHCG), Eleusine indica (ELEIN), Setaria viridis (SETVI), Amaranthus retroflexus (AMARE), Chenopodium album (CHEAL), Kochia scoparia (KCHSC), Solanum nigrum (SOLNI), Avena fatua (AVEFA), Bromus sterilis (BROST), Lolium multiflorum (LOLMU), Phalaris minor (PHAMI), Poa annua (POAAN), Galium aparine (GALAP), Matricaria inodora (MATIN) and Polygonum convolvulus (POLCO).
(§3) The harmful plant seeds were sown in pots (diameter 8 cm) with sandy loam soil and germinated under optimal conditions. The inventive herbicidal compositions or the active ingredients alone were applied post-emergence to the planted pots with a spray volume of 300 L/ha. The trial was conducted in a greenhouse under optimum growth conditions. The herbicidal effects were assessed visually by comparison of untreated and treated plants. The percentages mean: 0%=no effects, 100%=the plants die off completely). The percentages are used to calculate interactions between individual treatments and combination treatments according to S. R. Colby, Weeds 15, pages 20 to 22 (1967).
(§4) The abbreviations mean: • a.i.=active ingredient • E^C=expected value according to Colby (E^C=A+B−A×B/100) • Diff: =difference (%) of measured value from expected value (%) (measured value minus expected value)
(§5) Assessment: • measured value E is greater than E^C:->synergism (+ diff.) • measured value E equals E^C:->additive effect • measured value E is smaller than E^C:->antagonism(− diff.)

[1] = test system: Chenopodium album (CHEAL); assay: greenhouse post-emergence herbicidal efficacy against CHEAL
Procedure: as §1, §2, §3, §4, §5

[2] = test system: Amaranthus retroflexus (AMARE); assay: greenhouse post-emergence herbicidal efficacy against AMARE
Procedure: as §1, §2, §3, §4, §5

[3] = test system: Polygonum convolvulus (POLCO); assay: greenhouse post-emergence herbicidal efficacy against POLCO
Procedure: as §1, §2
as §3, with “completely).” for “completely). The percentages are used to calculate interactions between individual treatments and combination treatments according to S. R. Colby, Weeds 15, pages 20 to 22 (1967).”
as §4, §5

Setaria viridis (SETVI) = assay: greenhouse post-emergence herbicidal efficacy against SETVI
Procedure: as §1, §2, §3, §4, §5

Poa annua (POAAN) = assay: greenhouse post-emergence herbicidal efficacy against POAAN
Procedure: as §1, §2
as §3, with “completely).” for “completely). The percentages are used to calculate interactions between individual treatments and combination treatments according to S. R. Colby, Weeds 15, pages 20 to 22 (1967).”
as §4, §5

[4] = test system: Matricaria inodora (MATIN); assay: greenhouse post-emergence herbicidal efficacy against MATIN
Procedure: as §1, §2
as §3, with “completely).” for “completely). The percentages are used to calculate interactions between individual treatments and combination treatments according to S. R. Colby, Weeds 15, pages 20 to 22 (1967).”
as §4, §5

Galium aparine (GALAP) = assay: greenhouse post-emergence herbicidal efficacy against GALAP
Procedure: as §1, §2
as §3, with “completely).” for “completely). The percentages are used to calculate interactions between individual treatments and combination treatments according to S. R. Colby, Weeds 15, pages 20 to 22 (1967).”
as §4, §5

DIGSA = assay: greenhouse post-emergence herbicidal efficacy against DIGSA
Procedure: as §1, §3, §4, §5

Eleusine indica (ELEIN) = assay: greenhouse post-emergence herbicidal efficacy against ELEIN
Procedure: as §1, §2, §3, §4, §5

Avena fatua (AVEFA) = assay: greenhouse post-emergence herbicidal efficacy against AVEFA
Procedure: as §1, §2
as §3, with “completely).” for “completely). The percentages are used to calculate interactions between individual treatments and combination treatments according to S. R. Colby, Weeds 15, pages 20 to 22 (1967).”
as §4, §5

Phalaris minor (PHAMI) = assay: greenhouse post-emergence herbicidal efficacy against PHAMI
Procedure: as §1, §2
as §3, with “completely).” for “completely). The percentages are used to calculate interactions between individual treatments and combination treatments according to S. R. Colby, Weeds 15, pages 20 to 22 (1967).”
as §4, §5

[5] = test system: Lolium multiflorum (LOLMU); assay: greenhouse post-emergence herbicidal efficacy against LOLMU
Procedure: as §1, §2
as §3, with “completely).” for “completely). The percentages are used to calculate interactions between individual treatments and combination treatments according to S. R. Colby, Weeds 15, pages 20 to 22 (1967).”
as §4, §5

Bromus sterilis (BROST) = assay: greenhouse post-emergence herbicidal efficacy against BROST
Procedure: as §1, §2
as §3, with “completely).” for “completely). The percentages are used to calculate interactions between individual treatments and combination treatments according to S. R. Colby, Weeds 15, pages 20 to 22 (1967).”
as §4, §5

Kochia scoparia (KCHSC) = assay: greenhouse post-emergence herbicidal efficacy against KCHSC
Procedure: as §1, §2, §3, §4, §5

[6] = test system: Echinochloa crus-galli (ECHCG); assay: greenhouse post-emergence herbicidal efficacy against ECHCG
Procedure: as §1, §2, §3, §4, §5

[7] = 21 days after application, 0.25 g of a.i./ha
[8] = 21 days after application, 1 g of a.i./ha
[9] = 14 days after application, 2.5 g of a.i./ha
[10] = 14 days after application, 10 g of a.i./ha
[11] = 21 days after application, g of a.i./ha: A1-55 10, glufosinate-ammonium 25
[12] = 21 days after application, g of a.i./ha: A1-55 10, glufosinate-ammonium 100
[13] = 14 days after application, 2 g of a.i./ha
[14] = 21 days after application, 2 g of a.i./ha
[15] = 21 days after application, g of a.i./ha: A1-55 2.5, glufosinate-ammonium 100
[16] = 21 days after application, g of a.i./ha: A1-55 2.5, glufosinate-ammonium 25
[17] = 14 days after application, 0.5 g of a.i./ha
[18] = 14 days after application, 50 g of a.i./ha
[19] = 21 days after application, g of a.i./ha: A2-1 12.5, fluroxypyr 20
[20] = 21 days after application, g of a.i./ha: A2-1 50, fluroxypyr 20
[21] = 21 days after application, 4 g of a.i./ha
[22] = 14 days after application, 12.5 g of a.i./ha
[23] = 21 days after application, g of a.i./ha: A2-1 12.5, fluroxypyr 80
[24] = 21 days after application, g of a.i./ha: A2-1 50, fluroxypyr 80
[25] = 14 days after application, 4 g of a.i./ha
[26] = 14 days after application, 1 g of a.i./ha

**Q.** Which Efficacy (Solanum nigrum (SOLNI)) does the source give for `COC(=O)c1csc(C)c1S(=O)(=O)NC(=O)n1nc(OC)n(C)c1=O` [thiencarbazone-methyl] here?
**A.** 50%

**Q.** What about the Efficacy [1, 7] of the same compound?
**A.** 50%

**Q.** And the Efficacy [1, 8]?
**A.** 70%

**Q.** And the Efficacy [2, 7]?
**A.** 60%

**Q.** How did the Efficacy [3, 9] turn out when `Cc1nnc(NC(=O)c2ccc(C(F)(F)F)c(-n3cccn3)c2Cl)o1` [A1-55] was run?
**A.** 0%

**Q.** And the Efficacy [3, 10]?
**A.** 0%

**Q.** What about the Efficacy [3, 11] of the same compound?
**A.** 0%

**Q.** What about the Efficacy [3, 12] of the same compound?
**A.** 0%

**Q.** What about the Efficacy (Setaria viridis (SETVI); [13]) of the same compound?
**A.** 40%

**Q.** And the Efficacy (Setaria viridis (SETVI); [14])?
**A.** 30%

**Q.** What about the Efficacy (Poa annua (POAAN); [9]) of the same compound?
**A.** 5%

**Q.** What about the Efficacy (Poa annua (POAAN); [10]) of the same compound?
**A.** 20%

**Q.** And the Efficacy (Poa annua (POAAN); [15])?
**A.** 0%

**Q.** What about the Efficacy (Poa annua (POAAN); [12]) of the same compound?
**A.** 0%

**Q.** And the Efficacy [4, 9]?
**A.** 0%

**Q.** And the Efficacy [4, 10]?
**A.** 30%

**Q.** What about the Efficacy [4, 16] of the same compound?
**A.** 0%

**Q.** And the Efficacy [4, 15]?
**A.** 0%

**Q.** And the Efficacy [4, 11]?
**A.** 20%

**Q.** And the Efficacy [4, 12]?
**A.** 20%

**Q.** What about the Efficacy (Galium aparine (GALAP); [9]) of the same compound?
**A.** 0%

**Q.** And the Efficacy (Galium aparine (GALAP); [10])?
**A.** 30%

**Q.** What about the Efficacy (Galium aparine (GALAP); [11]) of the same compound?
**A.** 15%

**Q.** What about the Efficacy (DIGSA; [17]) of the same compound?
**A.** 20%

**Q.** What about the Efficacy (DIGSA; [14]) of the same compound?
**A.** 30%

**Q.** What about the Efficacy (Eleusine indica (ELEIN); [13]) of the same compound?
**A.** 40%

**Q.** What about the Efficacy (Eleusine indica (ELEIN); [14]) of the same compound?
**A.** 30%

**Q.** What about the Efficacy [1, 13] of the same compound?
**A.** 70%

**Q.** And the Efficacy (Avena fatua (AVEFA); [9])?
**A.** 0%

**Q.** And the Efficacy (Avena fatua (AVEFA); [15])?
**A.** 0%

**Q.** And the Efficacy (Avena fatua (AVEFA); [12])?
**A.** 10%

**Q.** What about the Efficacy (Phalaris minor (PHAMI); [9]) of the same compound?
**A.** 0%

**Q.** And the Efficacy (Phalaris minor (PHAMI); [10])?
**A.** 25%

**Q.** What about the Efficacy (Phalaris minor (PHAMI); [16]) of the same compound?
**A.** 0%

**Q.** And the Efficacy (Phalaris minor (PHAMI); [15])?
**A.** 0%

**Q.** And the Efficacy (Phalaris minor (PHAMI); [11])?
**A.** 5%

**Q.** And the Efficacy (Phalaris minor (PHAMI); [12])?
**A.** 5%

**Q.** What about the Efficacy [5, 9] of the same compound?
**A.** 0%

**Q.** What about the Efficacy [5, 10] of the same compound?
**A.** 15%

**Q.** And the Efficacy [5, 15]?
**A.** 0%

**Q.** What about the Efficacy [5, 12] of the same compound?
**A.** 10%

**Q.** What about the Efficacy [2, 17] of the same compound?
**A.** 20%

**Q.** And the Efficacy ([2]; 21 days after application, 0.5 g of a.i./ha)?
**A.** 10%

**Q.** What about the Efficacy (Bromus sterilis (BROST); [9]) of the same compound?
**A.** 5%

**Q.** And the Efficacy (Bromus sterilis (BROST); [15])?
**A.** 0%

**Q.** And the Efficacy (Bromus sterilis (BROST); [11])?
**A.** 10%

**Q.** Which results are given for `Cc1nnc(NC(=O)c2ccc(C(F)(F)F)nc2C)o1` [A2-1]?
**A.** Efficacy [3, 18]: 70%; Efficacy [3, 19]: 20%; Efficacy [3, 20]: 60%; Efficacy (Setaria viridis (SETVI); [21]): 20%; Efficacy (Poa annua (POAAN); [22]): 15%; Efficacy (Poa annua (POAAN); [19]): 0%; Efficacy (Poa annua (POAAN); [23]): 0%; Efficacy [4, 19]: 80%; Efficacy [4, 23]: 80%; Efficacy [4, 20]: 85%; Efficacy [4, 24]: 85%; Efficacy (Eleusine indica (ELEIN); [21]): 60%; Efficacy (Solanum nigrum (SOLNI)): 10%; Efficacy (Kochia scoparia (KCHSC); [21]): 40%; Efficacy (Avena fatua (AVEFA); [22]): 0%; Efficacy (Avena fatua (AVEFA); [18]): 0%; Efficacy (Avena fatua (AVEFA); [23]): 0%; Efficacy (Avena fatua (AVEFA); [24]): 0%; Efficacy (Phalaris minor (PHAMI); [22]): 15%; Efficacy (Phalaris minor (PHAMI); [23]): 0%; Efficacy (Phalaris minor (PHAMI); [24]): 15%; Efficacy [5, 22]: 0%; Efficacy [5, 18]: 0%; Efficacy [5, 24]: 0%; Efficacy (Bromus sterilis (BROST); [22]): 0%; Efficacy (Bromus sterilis (BROST); [24]): 0%; Efficacy [6, 25]: 50%; Efficacy [6, 21]: 40%

**Q.** For `COc1cc(OC)nc(NC(=O)NS(=O)(=O)c2cc(NC=O)ccc2C(=O)N(C)C)n1` [foramsulfuron], which Efficacy (Setaria viridis (SETVI); [26]) is on record?
**A.** 40%

**Q.** What about the Efficacy (Setaria viridis (SETVI); [21]) of the same compound?
**A.** 50%

**Q.** And the Efficacy (Setaria viridis (SETVI); [8])?
**A.** 20%

**Q.** What about the Efficacy (DIGSA; [25]) of the same compound?
**A.** 40%

**Q.** And the pest or weed control at 1 g/ha (Eleusine indica (ELEIN); Eleusine indica, post-emergence, 504 h, 21 days after application, 1 g of a.i./ha)?
**A.** 60%

**Q.** What about the Efficacy (Kochia scoparia (KCHSC); [26]) of the same compound?
**A.** 80%

**Q.** What about the Efficacy (Kochia scoparia (KCHSC); [25]) of the same compound?
**A.** 90%

**Q.** And the Efficacy (Kochia scoparia (KCHSC); [21])?
**A.** 80%

**Q.** And the Efficacy [1, 26]?
**A.** 50%

**Q.** What about the Efficacy [6, 26] of the same compound?
**A.** 60%

**Q.** What about the Efficacy [6, 8] of the same compound?
**A.** 30%
